Tested on: G-401 tumor spheroids, viability % test/control
Experiment: Anticancer human tumor G-401 cell line growth inhibition;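 also: spheroids exposed to compound for 7 days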;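 as to viability, T/C: 100% = DMSO vehicle-treated spheroids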
Conditions: spheroids with HUVEC and MSC; for IC50: curve of first compound; for viability, T/C: stronger effect = lower value
From the text: Multicellular complex tumor spheroid response to DNA repair inhibitors in combination with DNA-damaging drugs
This study explores the anticancer activities of DNA-damaging drugs and inhibitors of DNA damage repair, both as single agents and in combinations. Complex tumor spheroids comprised of malignant cells, endothelial cells and mesenchymal stem cells served as an in vitro model for human solid tumors. This model system incorporates physiologically relevant features and patient-derived or established malignant cell lines with clinically relevant genetic alterations from many tumor types. Twenty-six patient-derived or established malignant cell lines were evaluated representing sarcoma, melanoma, small cell lung cancer (SCLC), non-small cell lung cancer (NSCLC), as well as bladder, ovarian and pancreatic cancers. The concentration ranges selected for each drug and investigational agent were based upon clinically achievable concentrations if the clinical Cmax of the agent was known.
Compounds. The drugs and compounds olaparib (NSC753686), talazoparib (NSC767125), berzosertib (NSC777718), elimusertib (NSC800525), nedisertib (NSC802822), VX-984 (NSC792969), AZD-1390 (NSC803789), temozolomide (NSC362856), topotecan (NSC609699), trabectedin (NSC813783), staurosporine (NSC755774), and gemcitabine (NSC613327) were obtained from the National Cancer Institute (NCI) Developmental Therapeutics Program Chemical Repository. The FDA-approved anticancer drug set is available from the Developmental Therapeutics Program at https://dtp.cancer.gov/organization/dscb/obtaining/available_plates.htm. […] The stock solutions were prepared in dimethyl sulfoxide (DMSO, Sigma-Aldrich, St. Louis, MO, cat. D2650) at 400-fold the tested concentration and stored at -70 degrees C. Prior to their use, the stock solutions were diluted in fresh medium and the final DMSO concentration in the assay was 0.25% (v/v). All drugs and investigational agents were tested over a range starting from a high concentration at or near the clinical Cmax and decreasing in half-log increments. If the clinical Cmax for an agent had not been determined, the highest concentration tested was 10 microM.
Cell Lines. The patient-derived cancer cell (PDC) lines: 156681-154-R-J1-PDC, 283228-195-R-J1-PDC, 287954-098-R-J1-PDC, 292921-168-R-J2-PDC, 349418-098-R-PDC, 425362-245-T-J1-PDC, 556581-035-R-J1-PDC, and BL0293-F563-PDC were received from the NCI Patient-Derived Models Repository (PDMR, https://pdmr.cancer.gov). The established cell lines HS-SY-2 (RRID:CVCL_8719), MPNST, and SYO-1 (RRID:CVCL_7146) were obtained from the Sloan Kettering Institute. The alveolar soft parts sarcoma cell line ASPS-1 (RRID:CVCL_S738) was established at the NCI and grown from internal seed stocks. The following established cell lines were purchased from the American Type Culture Collection (ATCC, Manassas, VA): G-401 (ATCC, cat. CRL-1441, RRID:CVCL_0270), SW982 (ATCC, cat. HTB-93, RRID:CVCL_1734), VA-ES-BJ (ATCC, cat. CRL-2138, RRID:CVCL_1785), NCI-H719 (ATCC, cat. CRL-5837, RRID:CVCL_1582), NCI-H196 (ATCC, cat. CRL-5823, RRID:CVCL_1509), NCI-H841 (ATCC, cat. CRL-5845, RRID:CVCL_1595), NCI-H1618 (ATCC, cat. CRL-5879, RRID:CVCL_1480), NCI-H1876 (ATCC, cat. CRL-5902, RRID:CVCL_1503), DMS 114 (ATCC, cat. CRL-2066; RRID:CVCL_1174), NCI-H211 (ATCC, cat. CRL-5824; RRID:CVCL_1529), and SW 1271 (ATCC, cat. CRL-2177, RRID:CVCL_1716). The small cell lung cancer cell line COR-L88 was purchased from Sigma-Aldrich (cat. 92031917-1VL, RRID:CVCL_1141). The non-small cell lung cancer cell lines NCI-H226 (RRID:CVCL_1544) and NCI-H322M (RRID:CVCL_1557) were established at the NCI and grown from internal seed stocks. Pooled donor human umbilical vein endothelial cells (HUVEC, Lonza, cat. CC-2519) and human mesenchymal stem cells (hMSC, Lonza, cat. PT-2501) were purchased from Lonza (Walkersville, MD).
Cell Culture. All cells were maintained in an incubator at 37 degrees C and 5% CO2 with 95% humidity. […]

Q: Which IC50 (second compound 30 pM) does the source give for `CC(C)n1c(=O)n(C)c2cnc3cc(F)c(-c4ccc(OCCCN5CCCCC5)nc4)cc3c21` + COc1cc2c(cc1O)CCNC21CSC2c3c(OC(C)=O)c(C)c4c(c3C(COC1=O)N1C(O)C3Cc5cc(C)c(OC)c(O)c5C(C21)N3C)OCO4 here?
A: < 31.6 nM

Q: And the IC50 (second compound 94.9 pM)?
A: < 31.6 nM

Q: What about the IC50 (second compound 0.0003 µM) of the same compound?
A: < 31.6 nM

Q: And the IC50 (second compound 0.000949 µM)?
A: < 31.6 nM

Q: What about the IC50 (second compound 0.003 µM) of the same compound?
A: < 31.6 nM

Q: What about the viability, T/C (second compound 30 pM, first compound 0.0316 µM) of the same compound?
A: 43.6%

Q: And the viability, T/C (second compound 30 pM, first compound 0.1 µM)?
A: 35.7%

Q: What about the viability, T/C (second compound 30 pM, first compound 0.316 µM) of the same compound?
A: 35%

Q: And the viability, T/C (second compound 30 pM, first compound 1 µM)?
A: 46.2%

Q: And the viability, T/C (second compound 30 pM, first compound 3.16 µM)?
A: 36.9%

Q: What about the viability, T/C (second compound 30 pM, first compound 10 µM) of the same compound?
A: 19%

Q: And the viability, T/C (second compound 94.9 pM, first compound 0.0316 µM)?
A: 19.1%

Q: What about the viability, T/C (second compound 94.9 pM, first compound 0.1 µM) of the same compound?
A: 17.3%

Q: And the viability, T/C (second compound 94.9 pM, first compound 0.316 µM)?
A: 18.1%

Q: What about the viability, T/C (second compound 94.9 pM, first compound 1 µM) of the same compound?
A: 21.6%

Q: What about the viability, T/C (second compound 94.9 pM, first compound 3.16 µM) of the same compound?
A: 23.9%

Q: And the viability, T/C (second compound 94.9 pM, first compound 10 µM)?
A: 23%

Q: And the viability, T/C (second compound 0.0003 µM, first compound 0.0316 µM)?
A: 15.6%

Q: And the viability, T/C (second compound 0.0003 µM, first compound 0.1 µM)?
A: 12.8%

Q: What about the viability, T/C (second compound 0.0003 µM, first compound 0.316 µM) of the same compound?
A: 16.4%

Q: And the viability, T/C (second compound 0.0003 µM, first compound 1 µM)?
A: 19.7%

Q: What about the viability, T/C (second compound 0.0003 µM, first compound 3.16 µM) of the same compound?
A: 18.4%

Q: And the viability, T/C (second compound 0.0003 µM, first compound 10 µM)?
A: 17.9%

Q: And the viability, T/C (second compound 0.000949 µM, first compound 0.0316 µM)?
A: 7.44%

Q: And the viability, T/C (second compound 0.000949 µM, first compound 0.1 µM)?
A: 7.47%

Q: And the viability, T/C (second compound 0.000949 µM, first compound 0.316 µM)?
A: 7.71%

Q: And the viability, T/C (second compound 0.000949 µM, first compound 1 µM)?
A: 11.5%

Q: What about the viability, T/C (second compound 0.000949 µM, first compound 3.16 µM) of the same compound?
A: 12.2%

Q: What about the viability, T/C (second compound 0.000949 µM, first compound 10 µM) of the same compound?
A: 10.6%

Q: What about the viability, T/C (second compound 0.003 µM, first compound 0.0316 µM) of the same compound?
A: 0.13%

Q: What about the viability, T/C (second compound 0.003 µM, first compound 0.1 µM) of the same compound?
A: 0.16%

Q: What about the viability, T/C (second compound 0.003 µM, first compound 0.316 µM) of the same compound?
A: 0.15%

Q: And the viability, T/C (second compound 0.003 µM, first compound 1 µM)?
A: 0.36%

Q: And the viability, T/C (second compound 0.003 µM, first compound 3.16 µM)?
A: 0.4%

Q: What about the viability, T/C (second compound 0.003 µM, first compound 10 µM) of the same compound?
A: 0.44%

— PubChem BioAssay AID1845203 (Molecular Pharmacology Branch, DTP, NCI, 2023)
